Here are results for 35 molecules from ChEMBL document CHEMBL1136048, “2a-[4-(Tetrahydropyridoindol-2-yl)butyl]tetrahydrobenzindole derivatives: new selective antagonists of the 5-hydroxytryptamine7 receptor” (J Med Chem, 2002).

The target of experiment [1] is Serotonin 2 (5-HT2) receptor (Rattus norvegicus, UniProt P30994+P08909+P14842). As to the kind of experiment: In vitro binding affinity to 5-hydroxytryptamine 2 receptor of rat cerebral cortex membranes using [3H]ketanserin as the radioligand. In kind it is tissue-based, Membrane.
The target in experiment [2] is 5-hydroxytryptamine receptor 7 (Homo sapiens, UniProt P34969). The experiment can be described thus: Binding affinity to human recombinant 5-hydroxytryptamine 7 receptor in mammalian cells using [3H]5-CT as radioligand. It counts as cell-based.
In experiment [3] the target is T1, 5-hydroxytryptamine receptor 1A (Homo sapiens, UniProt P08908).
T1 sequence (P08908 whole entry): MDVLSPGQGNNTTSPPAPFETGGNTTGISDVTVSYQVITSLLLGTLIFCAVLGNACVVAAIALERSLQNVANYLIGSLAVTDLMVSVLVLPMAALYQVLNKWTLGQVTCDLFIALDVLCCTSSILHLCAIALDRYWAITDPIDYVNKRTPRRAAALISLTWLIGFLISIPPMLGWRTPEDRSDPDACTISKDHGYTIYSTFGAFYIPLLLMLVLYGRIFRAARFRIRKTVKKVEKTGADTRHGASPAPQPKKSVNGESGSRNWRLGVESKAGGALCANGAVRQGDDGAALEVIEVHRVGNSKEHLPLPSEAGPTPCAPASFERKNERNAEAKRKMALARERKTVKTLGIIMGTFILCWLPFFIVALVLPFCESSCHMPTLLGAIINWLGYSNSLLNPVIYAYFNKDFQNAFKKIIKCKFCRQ
The experiment can be described thus: In vitro binding affinity at human recombinant 5-hydroxytryptamine 1A receptor in mammalian cells using 3[H]8-OH-DPAT as the radioligand. In kind it is cell-based.

Experiment [4] deals with 5-hydroxytryptamine receptor 1B (Rattus norvegicus, UniProt P28564). The experiment can be described thus: In vitro binding affinity at 5-hydroxytryptamine 1B receptor in rat striatal […] using [125I](-)-iodocyanopindolol as the radioligand.
In experiment [5] the target is T2, Serotonin 3 receptor (5HT3) (Mus musculus, UniProt Q9JHJ5+P23979).
T2 sequence (Q9JHJ5 whole entry): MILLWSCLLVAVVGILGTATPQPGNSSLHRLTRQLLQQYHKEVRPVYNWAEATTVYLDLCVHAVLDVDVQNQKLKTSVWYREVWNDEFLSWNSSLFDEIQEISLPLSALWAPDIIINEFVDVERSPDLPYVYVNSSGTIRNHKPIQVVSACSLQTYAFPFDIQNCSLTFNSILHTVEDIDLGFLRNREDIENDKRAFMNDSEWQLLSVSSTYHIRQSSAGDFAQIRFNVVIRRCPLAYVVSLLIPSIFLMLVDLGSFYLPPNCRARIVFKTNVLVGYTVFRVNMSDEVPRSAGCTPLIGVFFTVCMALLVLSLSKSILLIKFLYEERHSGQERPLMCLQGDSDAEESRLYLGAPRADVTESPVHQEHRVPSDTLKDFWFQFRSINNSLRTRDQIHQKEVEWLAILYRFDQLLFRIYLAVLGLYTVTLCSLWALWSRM
T2 sequence (P23979 whole entry): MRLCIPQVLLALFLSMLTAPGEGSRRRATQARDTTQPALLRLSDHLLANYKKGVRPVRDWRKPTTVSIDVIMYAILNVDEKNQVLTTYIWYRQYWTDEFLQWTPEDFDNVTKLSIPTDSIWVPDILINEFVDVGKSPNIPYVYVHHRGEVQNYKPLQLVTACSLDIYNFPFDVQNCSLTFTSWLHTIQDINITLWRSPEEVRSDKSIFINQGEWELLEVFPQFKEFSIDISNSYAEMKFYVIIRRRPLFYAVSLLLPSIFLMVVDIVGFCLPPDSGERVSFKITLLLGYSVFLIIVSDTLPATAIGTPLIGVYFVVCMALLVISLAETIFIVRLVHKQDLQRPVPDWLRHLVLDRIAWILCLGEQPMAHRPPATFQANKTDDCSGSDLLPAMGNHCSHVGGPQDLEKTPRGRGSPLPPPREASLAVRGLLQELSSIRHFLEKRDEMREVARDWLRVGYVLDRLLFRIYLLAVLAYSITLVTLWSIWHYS
As to the kind of experiment: In vitro binding affinity at 5-hydroxytryptamine 3 receptor in N1E-115 cells using 3[H]GR-65630 as the radioligand. It counts as cell-based.

The target in experiment [6] is 5-hydroxytryptamine receptor 4 (Cavia porcellus, UniProt O70528). The experiment can be described thus: In vitro binding affinity at 5-hydroxytryptamine 4 receptor in guinea pig striatum using 3[H]GR-113808 as the radioligand. In kind it is tissue-based.
In experiment [7] the target is 5-hydroxytryptamine receptor 6 (Homo sapiens, UniProt P50406). The experiment can be described thus: In vitro binding affinity at human recombinant 5-hydroxytryptamine 6 receptor in mammalian cells using 3[H]LSD as the radioligand. It counts as cell-based.
5-hydroxytryptamine receptor 6, sequence (P50406 whole entry): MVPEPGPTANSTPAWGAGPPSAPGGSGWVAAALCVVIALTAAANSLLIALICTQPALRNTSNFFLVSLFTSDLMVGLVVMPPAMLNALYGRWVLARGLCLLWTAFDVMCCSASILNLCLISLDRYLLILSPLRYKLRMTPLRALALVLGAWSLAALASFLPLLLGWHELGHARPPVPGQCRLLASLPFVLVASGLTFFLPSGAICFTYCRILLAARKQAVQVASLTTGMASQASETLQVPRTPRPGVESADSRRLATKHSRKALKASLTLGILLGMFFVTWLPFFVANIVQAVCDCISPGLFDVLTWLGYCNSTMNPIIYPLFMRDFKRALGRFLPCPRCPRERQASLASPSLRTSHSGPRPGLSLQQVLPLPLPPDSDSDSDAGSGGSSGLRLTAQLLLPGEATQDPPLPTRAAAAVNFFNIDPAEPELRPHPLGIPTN

5-hydroxytryptamine receptor 7, sequence (P34969 whole entry): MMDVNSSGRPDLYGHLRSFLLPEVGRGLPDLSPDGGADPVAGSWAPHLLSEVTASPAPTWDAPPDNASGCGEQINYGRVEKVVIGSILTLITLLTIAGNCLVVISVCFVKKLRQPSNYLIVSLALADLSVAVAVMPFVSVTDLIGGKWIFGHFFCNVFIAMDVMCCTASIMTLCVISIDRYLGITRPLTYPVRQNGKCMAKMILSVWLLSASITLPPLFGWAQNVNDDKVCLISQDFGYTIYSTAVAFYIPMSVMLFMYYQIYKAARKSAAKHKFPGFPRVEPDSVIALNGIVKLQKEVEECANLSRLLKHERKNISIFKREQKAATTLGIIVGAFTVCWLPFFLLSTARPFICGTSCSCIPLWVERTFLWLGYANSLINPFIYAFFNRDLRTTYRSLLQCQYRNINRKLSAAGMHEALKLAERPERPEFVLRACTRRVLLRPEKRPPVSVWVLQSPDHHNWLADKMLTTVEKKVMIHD
5-hydroxytryptamine receptor 1B, sequence (P28564 whole entry): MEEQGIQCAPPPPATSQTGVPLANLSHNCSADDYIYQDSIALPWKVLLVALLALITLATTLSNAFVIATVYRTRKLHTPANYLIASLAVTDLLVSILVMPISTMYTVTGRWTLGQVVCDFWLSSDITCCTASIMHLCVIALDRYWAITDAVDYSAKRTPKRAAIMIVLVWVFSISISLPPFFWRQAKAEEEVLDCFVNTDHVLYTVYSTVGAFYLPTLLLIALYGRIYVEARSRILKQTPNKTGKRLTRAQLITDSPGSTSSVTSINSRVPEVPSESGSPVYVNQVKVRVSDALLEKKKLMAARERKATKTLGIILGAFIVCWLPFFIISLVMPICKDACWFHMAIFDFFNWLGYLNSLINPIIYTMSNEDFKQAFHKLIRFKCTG
5-hydroxytryptamine receptor 4, sequence (O70528 whole entry): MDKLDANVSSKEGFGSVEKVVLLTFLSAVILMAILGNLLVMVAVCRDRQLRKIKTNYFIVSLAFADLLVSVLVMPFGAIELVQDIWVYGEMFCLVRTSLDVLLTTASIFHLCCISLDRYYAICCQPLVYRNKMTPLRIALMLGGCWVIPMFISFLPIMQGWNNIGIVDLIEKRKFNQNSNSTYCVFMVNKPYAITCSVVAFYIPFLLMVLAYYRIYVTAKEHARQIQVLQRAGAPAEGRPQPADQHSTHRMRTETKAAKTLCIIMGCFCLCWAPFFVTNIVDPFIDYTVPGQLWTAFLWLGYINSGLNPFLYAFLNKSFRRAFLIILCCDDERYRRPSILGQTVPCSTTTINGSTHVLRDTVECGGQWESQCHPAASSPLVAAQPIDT

Take `O=C1Nc2cccc3c2C1(CCCCN1CCC(c2ccccc2)CC1)CCC3` (stereo not drawn): the “Log Ki” value in experiment [1] was -6.84. Also, the Ki in experiment [2] is 3.98 nM.

With `NCCc1c[nH]c2ccc(C(N)=O)cc12`, the “Log Ki” value in experiment [1] is listed as less than -6.

Take `O=C1Nc2cccc3c2C1(CCCCN1CCN(C2CCCCC2)CC1)CCC3` (stereo not drawn): the “Log Ki” value in experiment [1] was less than -6.

On to `O=C1Nc2cccc3c2C1(CCCCN1CCC(O)(c2ccccc2)CC1)CCC3` (stereo not drawn), for which, in experiment [1], the “Log Ki” value is recorded as -6.35. The Ki in experiment [2] is 43.7 nM.

Take `Cc1cccc(C)c1N1CCN(CCCCC23CCCc4cccc(c42)NC3=O)CC1` (stereo not drawn): in experiment [1], the “Log Ki” value is -5.85. In addition, the Ki in experiment [2] is 148 nM.

On to `C=CCn1c2c(c3ccccc31)CCN(CCCCC13CCCc4cccc(c41)NC3=O)C2` (stereo not drawn), for which the “Log Ki” value in experiment [1] is given as -6.55. In addition, in experiment [2], the Ki is 6.03 nM.

Consider `CC(=O)c1ccccc1N1CCN(CCCCC23CCCc4cccc(c42)NC3=O)CC1` (stereo not drawn), for which, in experiment [1], the “Log Ki” value is -6.45. The Ki in experiment [2] was 7.94 nM.

As for `Cc1ccccc1N1CCN(CCCCC23CCCc4cccc(c42)NC3=O)CC1` (stereo not drawn), the “Log Ki” value in experiment [1] is reported as -7.35. In addition, the Ki in experiment [2] was 10.5 nM.

Take `Cc1ccc(C2=CCN(CCCCC34CCCc5cccc(c53)NC4=O)CC2)cc1` (stereo not drawn): the “Log Ki” value in experiment [1] is -6.94. The Ki in experiment [2] was 4.79 nM.

On to `Cn1c2c(c3ccccc31)CCN(CCCCC13CCCc4cccc(c41)NC3=O)C2` (stereo not drawn), for which, in experiment [1], the “Log Ki” value is -6.28. Moreover, the inhibitory constant (Ki) in experiment [2] was 19.1 nM.

On to `O=C1Nc2cccc3c2C1(CCCCN1CCN(c2ccccc2Cl)CC1)CCC3` (stereo not drawn), for which, in experiment [1], the “Log Ki” value is on record as -7.01. The Ki in experiment [2] was 12.3 nM.

In the case of `COC1(c2ccccc2)CCN(CCCCC23CCCc4cccc(c42)NC3=O)CC1` (stereo not drawn), the “Log Ki” value in experiment [1] is -6.43. Also, the Ki in experiment [2] is 21.9 nM.

As to `CC(=O)C1(c2ccccc2)CCN(CCCCC23CCCc4cccc(c42)NC3=O)CC1` (stereo not drawn), in experiment [1], the “Log Ki” value is listed as -7.01. Moreover, the Ki in experiment [2] is 72.4 nM.

For `COc1ccc2[nH]c3c(c2c1)CCN(CCCCC12CCCc4cccc(c41)NC2=O)C3` (stereo not drawn), the “Log Ki” value in experiment [1] is on record as -6.17. In addition, in experiment [2], the Ki was 29.5 nM.

For the molecule `O=C1Nc2cccc3c2C1(CCCCN1CC=C(c2ccc(F)cc2)CC1)CCC3` (stereo not drawn), the “Log Ki” value in experiment [1] is -7.1. In addition, the Ki in experiment [2] was 3.55 nM.

On to `O=C1Nc2ccc(O)c3c2C1(CCCCN1CC=C(c2ccccc2)CC1)CCC3` (stereo not drawn), for which, in experiment [1], the “Log Ki” value is reported as -7.4. Further, the Ki in experiment [2] is 8.13 nM.

`CNC(=O)Cn1c2c(c3ccccc31)CCN(CCCCC13CCCc4cccc(c41)NC3=O)C2` (stereo not drawn): the Ki in experiment [3] is 129 nM; in experiment [4], greater than 1000 nM; in experiment [2], 3.55 nM; in experiment [6], 490 nM; in experiment [7] it was greater than 1000 nM. For the same molecule, the “Log Ki” value in experiment [1] was less than -6; in experiment [5] it was greater than -6.

Regarding `NC(=O)C1(c2ccccc2)CCN(CCCCC23CCCc4cccc(c42)NC3=O)CC1` (stereo not drawn), in experiment [1], the “Log Ki” value is recorded as -7.8. Further, in experiment [2], the Ki was 224 nM.

Turning to `O=C1Nc2cccc3c2C1(CCCCN1CCN(c2ccccc2[N+](=O)[O-])CC1)CCC3` (stereo not drawn), the “Log Ki” value in experiment [1] is -7.34. For the same molecule, in experiment [2], the Ki is 24 nM.

Take `O=C1Nc2cccc3c2C1(CCCCN1CCN(c2ccccc2C(F)(F)F)CC1)CCC3` (stereo not drawn): the “Log Ki” value in experiment [1] was -5.86. Also, in experiment [2], the Ki was 74.1 nM.

`COc1ccc2c3c1CCCC3(CCCCN1CC=C(c3ccccc3)CC1)C(=O)N2` (stereo not drawn): the “Log Ki” value in experiment [1] was -7.55. Moreover, in experiment [2], the Ki is 110 nM.

In the case of `NC(=O)c1ccc2c3c1CCCC3(CCCCN1CC=C(c3ccccc3)CC1)C(=O)N2` (stereo not drawn), the “Log Ki” value in experiment [1] is given as -6.8. The Ki in experiment [2] is 417 nM.

Consider `CN1C(=O)C2(CCCCN3CC=C(c4ccccc4)CC3)CCCc3cccc1c32` (stereo not drawn), for which, in experiment [1], the “Log Ki” value is reported as -6.88. The Ki in experiment [2] is 25.1 nM.

Take `NC(=O)c1ccccc1N1CCN(CCCCC23CCCc4cccc(c42)NC3=O)CC1` (stereo not drawn): the “Log Ki” value in experiment [1] is reported as -6.05. Moreover, in experiment [2], the Ki is 17.4 nM.

Consider `NC(=O)Cn1c2c(c3ccccc31)CCN(CCCCC13CCCc4cccc(c41)NC3=O)C2` (stereo not drawn), for which the “Log Ki” value in experiment [1] is listed as -6.09. In addition, the inhibitory constant (Ki) in experiment [2] was 8.71 nM.

On to `O=C1Nc2ccc(Br)c3c2C1(CCCCN1CC=C(c2ccccc2)CC1)CCC3` (stereo not drawn), for which the “Log Ki” value in experiment [1] was -6.54. Also, the Ki in experiment [2] is 12.3 nM.

On to `CC(=O)c1ccc2c3c1CCCC3(CCCCN1CC=C(c3ccccc3)CC1)C(=O)N2` (stereo not drawn), for which the “Log Ki” value in experiment [1] was -7.12. In addition, the Ki in experiment [2] is 97.7 nM.

Turning to `CN(C)C(=O)Cn1c2c(c3ccccc31)CCN(CCCCC13CCCc4cccc(c41)NC3=O)C2` (stereo not drawn), in experiment [1], the “Log Ki” value is on record as less than -6. Further, the inhibition constant Ki in experiment [2] is 19.1 nM.

With `COCn1c2c(c3ccccc31)CCN(CCCCC13CCCc4cccc(c41)NC3=O)C2` (stereo not drawn), in experiment [1], the “Log Ki” value was -6.24. In experiment [2], the Ki is 17 nM.

Take `CC(=O)n1c2c(c3ccccc31)CCN(CCCCC13CCCc4cccc(c41)NC3=O)C2` (stereo not drawn): the “Log Ki” value in experiment [1] is -6.27. In addition, the Ki in experiment [2] is 6.46 nM.

As for `O=C1Nc2cccc3c2C1(CCCCN1CCc2c([nH]c4ccccc24)C1)CCC3` (stereo not drawn), the “Log Ki” value in experiment [1] is -6.62. Moreover, the Ki in experiment [2] was 5.75 nM.

`COc1ccc(N2CCN(CCCCC34CCCc5cccc(c53)NC4=O)CC2)cc1` (stereo not drawn): the “Log Ki” value in experiment [1] is given as -6.69. Besides, in experiment [2], the Ki was 20.4 nM.

`COc1cccc(N2CCN(CCCCC34CCCc5cccc(c53)NC4=O)CC2)c1` (stereo not drawn): the “Log Ki” value in experiment [1] is given as -7.19. Further, the Ki in experiment [2] is 2.34 nM.

`CN(C)C(=O)n1c2c(c3ccccc31)CCN(CCCCC13CCCc4cccc(c41)NC3=O)C2` (stereo not drawn): the “Log Ki” value in experiment [1] is -6.12. Moreover, the Ki in experiment [2] was 7.08 nM.

`O=C1Nc2cccc3c2C1(CCCCN1CCN(c2ncccn2)CC1)CCC3` (stereo not drawn): the “Log Ki” value in experiment [1] is -6.91. Further, the Ki in experiment [2] is 45.7 nM.

One may read the Ki as the equilibrium dissociation constant of an inhibitor or competing ligand from its target.
